Six compounds from US7994334B2, “Fungicide pyridinyloxy substituted phenylamidine derivatives” (Bayer Cropscience AG, priority 2005, dated 2011) can be followed below.

The nature of the data set: logP by HPLC on reversed-phase column (C 18), EEC Directive 79/831 Annex V.A8. The note with it: C 18, 40° C., 0.1% aqueous formic acid and acetonitrile. In kind it is physicochemical. The procedure: Temperature: 40° C.; Mobile phases: 0.1% aqueous formic acid and acetonitrile; linear gradient from 10% acetonitrile to 90% acetonitrile.
Regarding `Cc1cc(Oc2ncc(Cl)cc2Cl)c(C)cc1N=CN(C)C(C)C` [Example 32], the logPa worked out at 2.24.

As for `CCN(C)C=Nc1cc(C)c(Oc2ccnc(Cl)c2)cc1C` [Example 69], the logPa worked out at 1.45. `CCCN(C)C=Nc1cc(C)c(Oc2cc(C(F)(F)F)c(F)c(F)n2)cc1C` [Example 63]: the logPa is reported as 2.48. Under `CCN(C)C=Nc1cc(C)c(Oc2ccc(I)cn2)cc1C` [Example 14] stands 2.10; under `CCc1cc(Cl)cc(Oc2cc(C)c(N=CN3CCCCC3)cc2C)n1` [Example 40], 2.04. Under `CCN(C)C=Nc1cc(C)c(Oc2cccc(Cl)n2)cc1C` [Example 26] stands 1.78.
